Source: patent US20260262643A1, “HERBICIDAL BENZOXAZINES” (FMC CORPORATION, priority 2022, published 2026)

Assays:
ducksalad = assay: Test D flooded paddy test; assay type: in vivo, Heteranthera limosa; details: 250 g ai/ha, applied to paddy water, visual rating after 13 to 14 days, scale 0 to 100 (0 no effect, 100 complete control)
Procedure, shortened: (§1)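 Plants grown to the 2-leaf stage; pots flooded to 3 cm above soil at treatment and held at that depth throughout. Test compounds applied directly to the paddy water. After 13 to 14 days in a greenhouse, response was rated visually versus controls on a 0 (no effect) to 100 (complete control) scale.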

blackgrass [1] = assay: Test C preemergence; assay type: in vivo, Alopecurus myosuroides; details: for Blackgrass plant response rating: preemergence; for Plant response rating, Blackgrass: Preemergence
Procedure, shortened: (§2)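 Soil-applied (pre) and foliar (post, 1–2 leaf, 2–10 cm) sprays; surfactant-containing non-phytotoxic solvent vehicle; loam/sand substrate. Readout: visual % control at 10 d, greenhouse, versus untreated.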

green foxtail [2] = assay: Test C postemergence; assay type: in vivo, Setaria viridis; details: 10 days
Procedure, shortened: as §2

corn [3] = assay: Test C postemergence; assay type: in vivo, Zea mays; details: 10 days
Procedure, shortened: as §2

wheat [4] = assay: Test C postemergence; assay type: in vivo, Triticum aestivum; details: 10 days
Procedure, shortened: as §2

soybean [5] = assay: Test C preemergence; assay type: in vivo, Glycine max; details: for Soybean plant response rating: preemergence; for Plant response rating, Soybean: Preemergence
Procedure, shortened: as §2

ragweed [6] = assay: Test C preemergence; assay type: in vivo, Ambrosia artemisiifolia; details: for Ragweed plant response rating: preemergence; for Plant response rating, Ragweed: Preemergence
Procedure, shortened: as §2

rice = assay: Test D flooded paddy test; assay type: in vivo, Oryza sativa; details: 250 g ai/ha, applied to paddy water, visual rating after 13 to 14 days, scale 0 to 100 (0 no effect, 100 complete control)
Procedure, shortened: as §1

wheat [7] = assay: Test C preemergence; assay type: in vivo, Triticum aestivum; details: for Wheat plant response rating: preemergence; for Plant response rating, Wheat: Preemergence
Procedure, shortened: as §2

oat, wild [8] = assay: Test C postemergence; assay type: in vivo, Avena fatua; details: 10 days
Procedure, shortened: as §2

barnyardgrass [9] = assay: Test D flooded paddy test; assay type: in vivo, Echinochloa crus-galli; details: 250 g ai/ha, applied to paddy water, visual rating after 13 to 14 days, scale 0 to 100 (0 no effect, 100 complete control)
Procedure, shortened: as §1

barnyardgrass [10] = assay: Test C postemergence; assay type: in vivo, Echinochloa crusgalli; details: 10 days
Procedure, shortened: as §2

sedge, umbrella = assay: Test D flooded paddy test; assay type: in vivo, Cyperus difformis; details: 250 g ai/ha, applied to paddy water, visual rating after 13 to 14 days, scale 0 to 100 (0 no effect, 100 complete control)
Procedure, shortened: as §1

soybean [11] = assay: Test C postemergence; assay type: in vivo, Glycine max; details: 10 days
Procedure, shortened: as §2

corn [12] = assay: Test C preemergence; assay type: in vivo, Zea mays; details: for Corn plant response rating: preemergence; for Plant response rating, Corn: Preemergence
Procedure, shortened: as §2

ragweed [13] = assay: Test C postemergence; assay type: in vivo, Ambrosia artemisiifolia; details: 10 days
Procedure, shortened: as §2

horseweed = assay: Test C postemergence; assay type: in vivo, Erigeron canadensis; details: 10 days
Procedure, shortened: as §2

oat, wild [14] = assay: Test C preemergence; assay type: in vivo, Avena fatua; details: for Oat, Wild plant response rating: preemergence; for Plant response rating, Oat, Wild: Preemergence
Procedure, shortened: as §2

kochia [15] = assay: Test C preemergence; assay type: in vivo, Bassia scoparia; details: for Kochia plant response rating: preemergence; for Plant response rating, Kochia: Preemergence
Procedure, shortened: as §2

blackgrass [16] = assay: Test C postemergence; assay type: in vivo, Alopecurus myosuroides; details: 10 days
Procedure, shortened: as §2

pigweed, palmer [17] = assay: Test C postemergence; assay type: in vivo, Amaranthus palmeri; details: 10 days
Procedure, shortened: as §2

kochia [18] = assay: Test C postemergence; assay type: in vivo, Bassia scoparia; details: 10 days
Procedure, shortened: as §2

ryegrass, Italian [19] = assay: Test C postemergence; assay type: in vivo, Lolium multiflorum; details: 10 days
Procedure, shortened: as §2

galium = assay: Test C postemergence; assay type: in vivo, Galium aparine; details: 10 days
Procedure, shortened: as §2

ryegrass, Italian [20] = assay: Test C preemergence; assay type: in vivo, Lolium multiflorum; details: for Ryegrass, Italian plant response rating: preemergence; for Plant response rating, Ryegrass, Italian: Preemergence
Procedure, shortened: as §2

barnyardgrass [21] = assay: Test C preemergence; assay type: in vivo, Echinochloa crusgalli; details: for Barnyardgrass plant response rating: preemergence; for Plant response rating, Barnyardgrass: Preemergence
Procedure, shortened: as §2

pigweed, palmer [22] = assay: Test C preemergence; assay type: in vivo, Amaranthus palmeri; details: for Pigweed, Palmer plant response rating: preemergence; for Plant response rating, Pigweed, Palmer: Preemergence
Procedure, shortened: as §2

green foxtail [23] = assay: Test C preemergence; assay type: in vivo, Setaria viridis; details: for Foxtail, Green plant response rating: preemergence; for Plant response rating, Foxtail, Green: Preemergence
Procedure, shortened: as §2

[24] = 500 g ai/ha, 0 to 100 scale (0 no effect, 100 complete control)
[25] = 125 g ai/ha, 0 to 100 scale, 0 no effect, 100 complete control
[26] = 500 g ai/ha, postemergence, 0 to 100 scale (0 no effect, 100 complete control)
[27] = Postemergence, 125 g ai/ha, 0 to 100 scale (0 no effect, 100 complete control)
[28] = 500 g ai/ha, visual rating after 10 days, 0 to 100 scale (0 no effect, 100 complete control)
[29] = Test C, 125 g ai/ha, 0 to 100 scale (0 no effect, 100 complete control)
[30] = 125 g ai/ha, postemergence, 0 to 100 scale, 0 no effect, 100 complete control
[31] = Postemergence, 500 g ai/ha, visual 0 to 100 scale (0 no effect, 100 complete control)

Cc1cccc2c1O[C@@H](C)CN2C(=O)c1cc(-n2cnc(C(C)C)n2)cc2c1CCO2 [Compound 392]
Plant response rating, Ducksalad (Flood) (ducksalad): 65 | Blackgrass plant response rating (blackgrass [1]; [24]): 80 | Plant response rating, Blackgrass (blackgrass [1]; [25]): 70 | Plant response rating, Foxtail, Green (green foxtail [2]; [26]): 90 | Plant response rating, Foxtail, Green (green foxtail [2]; [27]): 60 | Plant response rating, Corn (corn [3]; [26]): 80 | Plant response rating, Corn (corn [3]; [27]): 30 | Plant response rating, Wheat (wheat [4]; [26]): 60 | Plant response rating, Wheat (wheat [4]; [27]): 50 | Soybean plant response rating (soybean [5]; [24]): 100 | Plant response rating, Soybean (soybean [5]; [25]): 90 | Ragweed plant response rating (ragweed [6]; [24]): 80 | Plant response rating, Ragweed (ragweed [6]; [25]): 80 | Plant response rating, Rice (Flood) (rice): 0 | Wheat plant response rating (wheat [7]; [24]): 60 | Plant response rating, Wheat (wheat [7]; [25]): 20 | Plant response rating, Oat, Wild (oat, wild [8]; [26]): 90 | Plant response rating, Oat, Wild (oat, wild [8]; [27]): 70 | Plant response rating, Barnyardgrass (Flood) (barnyardgrass [9]): 40 | Plant response rating, Barnyardgrass (barnyardgrass [10]; [26]): 80 | Plant response rating, Barnyardgrass (barnyardgrass [10]; [27]): 50 | Plant response rating, Sedge, Umbrella (Flood) (sedge, umbrella): 65 | Plant response rating, Soybean (soybean [11]; [26]): 100 | Plant response rating, Soybean (soybean [11]; [27]): 100 | Corn plant response rating (corn [12]; [24]): 70 | Plant response rating, Corn (corn [12]; [25]): 30 | Plant response rating, Ragweed (ragweed [13]; [26]): 90 | Plant response rating, Ragweed (ragweed [13]; [27]): 90 | Plant response rating, Horseweed (horseweed; [26]): 90 | Plant response rating, Horseweed (horseweed; [27]): 60 | Oat, Wild plant response rating (oat, wild [14]; [24]): 90 | Plant response rating, Oat, Wild (oat, wild [14]; [25]): 50 | Kochia plant response rating (kochia [15]; [24]): 90 | Plant response rating, Kochia (kochia [15]; [25]): 90 | Plant response rating, Blackgrass (blackgrass [16]; [26]): 90 | Plant response rating, Blackgrass (blackgrass [16]; [27]): 80 | Plant response rating, Pigweed, Palmer (pigweed, palmer [17]; [26]): 100 | Plant response rating, Pigweed, Palmer (pigweed, palmer [17]; [27]): 100 | Plant response rating, Kochia (kochia [18]; [26]): 90 | Plant response rating, Kochia (kochia [18]; [27]): 90 | Plant response rating, Ryegrass, Italian (ryegrass, Italian [19]; [26]): 100 | Plant response rating, Ryegrass, Italian (ryegrass, Italian [19]; [27]): 80 | Plant response rating, Galium (galium; [26]): 100 | Plant response rating, Galium (galium; [27]): 100 | Ryegrass, Italian plant response rating (ryegrass, Italian [20]; [24]): 100 | Plant response rating, Ryegrass, Italian (ryegrass, Italian [20]; [25]): 90 | Barnyardgrass plant response rating (barnyardgrass [21]; [24]): 100 | Plant response rating, Barnyardgrass (barnyardgrass [21]; [25]): 90 | Pigweed, Palmer plant response rating (pigweed, palmer [22]; [24]): 100 | Plant response rating, Pigweed, Palmer (pigweed, palmer [22]; [25]): 100 | Foxtail, Green plant response rating (green foxtail [23]; [24]): 100 | Plant response rating, Foxtail, Green (green foxtail [23]; [25]): 100

COc1ccc(-n2cnc(C(C)C)n2)cc1C(=O)N1C[C@H](C)Oc2c1cccc2C(F)(F)F [Compound 171]
Plant response rating, Ducksalad (Flood) (ducksalad): 60 | Plant response rating, Blackgrass (blackgrass [1]; [28]): 70 | Blackgrass plant response rating (blackgrass [1]; [29]): 70 | Plant response rating, Foxtail, Green (green foxtail [2]; [30]): 40 | Plant response rating, Foxtail, Green (green foxtail [2]; [31]): 50 | Plant response rating, Corn (corn [3]; [30]): 20 | Plant response rating, Corn (corn [3]; [31]): 20 | Plant response rating, Wheat (wheat [4]; [30]): 10 | Plant response rating, Wheat (wheat [4]; [31]): 40 | Plant response rating, Soybean (soybean [5]; [28]): 100 | Soybean plant response rating (soybean [5]; [29]): 60 | Plant response rating, Ragweed (ragweed [6]; [28]): 90 | Ragweed plant response rating (ragweed [6]; [29]): 60 | Plant response rating, Rice (Flood) (rice): 0 | Plant response rating, Wheat (wheat [7]; [28]): 90 | Wheat plant response rating (wheat [7]; [29]): 40 | Plant response rating, Oat, Wild (oat, wild [8]; [30]): 10 | Plant response rating, Oat, Wild (oat, wild [8]; [31]): 50 | Plant response rating, Barnyardgrass (Flood) (barnyardgrass [9]): 0 | Plant response rating, Barnyardgrass (barnyardgrass [10]; [30]): 30 | Plant response rating, Barnyardgrass (barnyardgrass [10]; [31]): 40 | Plant response rating, Sedge, Umbrella (Flood) (sedge, umbrella): 95 | Plant response rating, Soybean (soybean [11]; [30]): 100 | Plant response rating, Soybean (soybean [11]; [31]): 100 | Plant response rating, Corn (corn [12]; [28]): 40 | Corn plant response rating (corn [12]; [29]): 30 | Plant response rating, Ragweed (ragweed [13]; [30]): 60 | Plant response rating, Ragweed (ragweed [13]; [31]): 70 | Plant response rating, Horseweed (horseweed; [30]): 20 | Plant response rating, Horseweed (horseweed; [31]): 80 | Plant response rating, Oat, Wild (oat, wild [14]; [28]): 80 | Oat, Wild plant response rating (oat, wild [14]; [29]): 70 | Plant response rating, Kochia (kochia [15]; [28]): 90 | Kochia plant response rating (kochia [15]; [29]): 90 | Plant response rating, Blackgrass (blackgrass [16]; [30]): 30 | Plant response rating, Blackgrass (blackgrass [16]; [31]): 80 | Plant response rating, Pigweed, Palmer (pigweed, palmer [17]; [30]): 100 | Plant response rating, Pigweed, Palmer (pigweed, palmer [17]; [31]): 100 | Plant response rating, Kochia (kochia [18]; [30]): 90 | Plant response rating, Kochia (kochia [18]; [31]): 90 | Plant response rating, Ryegrass, Italian (ryegrass, Italian [19]; [30]): 60 | Plant response rating, Ryegrass, Italian (ryegrass, Italian [19]; [31]): 80 | Plant response rating, Galium (galium; [30]): 100 | Plant response rating, Galium (galium; [31]): 100 | Plant response rating, Ryegrass, Italian (ryegrass, Italian [20]; [28]): 90 | Ryegrass, Italian plant response rating (ryegrass, Italian [20]; [29]): 50 | Plant response rating, Barnyardgrass (barnyardgrass [21]; [28]): 100 | Barnyardgrass plant response rating (barnyardgrass [21]; [29]): 90 | Plant response rating, Pigweed, Palmer (pigweed, palmer [22]; [28]): 100 | Pigweed, Palmer plant response rating (pigweed, palmer [22]; [29]): 100 | Plant response rating, Foxtail, Green (green foxtail [23]; [28]): 100 | Foxtail, Green plant response rating (green foxtail [23]; [29]): 100
